Source: paper PMC10150623 (Journal of Enzyme Inhibition and Medicinal Chemistry, 2023)
Peptide text beside a SMILES is read from it.

What was measured:
BoNT/A = details: cited from earlier work
leg muscle paralysis = test system: leg muscle paralysis; design: species or system KM mice; details: mouse, in vivo
[1] = in vivo; cited from earlier work
BoNT/A LC (1–448 aa) = BoNT/A LC (1–448 aa) (Clostridium botulinum, UniProt P0DPI0); type: biochemical
[2] = biological target: Clostridium botulinum neurotoxin type A light chain (1-448 aa) (Clostridium botulinum) (UniProt P0DPI0); assay: enzyme inhibition kinetics (HPLC of substrate and products)
Chain of Clostridium botulinum neurotoxin type A light chain (1-448 aa) (Clostridium botulinum) (P0DPI0 1-448): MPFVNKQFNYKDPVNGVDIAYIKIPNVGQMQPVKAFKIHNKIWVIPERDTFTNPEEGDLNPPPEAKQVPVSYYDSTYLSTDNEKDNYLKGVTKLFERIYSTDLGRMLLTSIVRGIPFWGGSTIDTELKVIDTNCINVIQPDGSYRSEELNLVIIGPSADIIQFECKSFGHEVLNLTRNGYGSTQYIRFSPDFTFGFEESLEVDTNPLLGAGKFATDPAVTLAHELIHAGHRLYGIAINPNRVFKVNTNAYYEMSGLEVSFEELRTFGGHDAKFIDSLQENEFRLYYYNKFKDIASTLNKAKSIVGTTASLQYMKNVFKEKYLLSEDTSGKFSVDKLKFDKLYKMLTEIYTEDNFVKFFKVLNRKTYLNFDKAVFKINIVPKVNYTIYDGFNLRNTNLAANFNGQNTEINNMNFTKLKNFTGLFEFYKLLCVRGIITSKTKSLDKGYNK

Chain of BoNT/A LC (1–448 aa) (P0DPI0 1-448 limits assumed): as the sequence (P0DPI0 1-448) above

## N=C(N)NCCC[C@H](NC(=O)[C@@H](N)CCCNC(=N)N)C(=O)NCC(=O)N[C@@H](Cc1c[nH]c2ccccc12)C(=O)O [RRGW] (H-RRGW-OH)
SH-SY5Y cells
  cytotoxicity (cell viability): no cytotoxicity
Neuro-2A (N2A) cells
  cytotoxicity (cell viability): no cytotoxicity

## CRGC
BoNT/A
  cell-based activity, in words: higher activity than RRGC in cell-based experiments

## Clostridium botulinum neurotoxin type A [BoNT/A]
Leg muscle paralysis
  DAS (digit abduction score): 3–4
[1]
  nonserious cases following cosmetic use: 995 cases
  nonserious cases following therapeutic use: 189 cases
  serious cases following cosmetic use: 36 cases
  serious cases following therapeutic use: 217 cases

## RHGW
BoNT/A LC (1–448 aa)
  inhibitory effect on BoNT/A LC proteolytic activity (SNAP-25 cleavage), in words: RRGW showed a better inhibitory effect on BoNT/A proteolytic activity than RRGC, RRGL and RHGW

## RRGL
BoNT/A LC (1–448 aa)
  inhibitory effect on BoNT/A LC proteolytic activity (SNAP-25 cleavage), in words: RRGW showed a better inhibitory effect on BoNT/A proteolytic activity than RRGC, RRGL

## RRGW tetrapeptide
[2]
  Ki: 790 nM
